Experimental data taken from patent US20240102075A1, “METHOD FOR QUANTIFYING 25-HYDROXYVITAMIN D, HYDROXYLASE, QUANTIFICATION COMPOSITION, QUANTIFICATION KIT, ELECTRODE, SENSOR CHIP, AND SENSOR” (KIKKOMAN CORPORATION, priority 2021, published 2024).

Legend:
[1] = cited from earlier work
[2] = hydroxylase activity using ferredoxin as a mediator, absorbance at 340 nm; type: biochemical; conditions: 0.5 mM 25-hydroxyvitamin D3, ferredoxin/ferredoxin reductase/NADPH, 90 seconds, 30° C.
Protocol: VDH obtained by the above-described method and ferredoxin were used to measure hydroxylase activity using 25-hydroxyvitamin D3, which is a vitamin D derivative, as a substrate.
4.19 mg of 25-hydroxyvitamin D3 was dissolved in 1 ml of DMSO (final concentration: 10 mM). Since 25-hydroxyvitamin D3 is lipid-soluble, it was diluted to 1 mM (concentration at the time of measurement: 0.5 mM) using 4.0% (v/v) TritonX-100 solution to maintain solubility.
After incubating 500 μl of the measurement reagent consisting of the composition of Table 2 at 30° C. for 3 minutes, 500 μl of the substrate reagent was added, and the absorbance (Abs) at the wavelength 340 nm was measured over time for 90 seconds using a spectrophotometer (U-3900, manufactured by Hitachi High-Tech Science Corporation). […] Therefore, it was shown that 25-hydroxyvitamin D can be quantified by hydroxylase activity of VDH using ferredoxin as a mediator.

1,25-dihydroxyvitamin D
half-life in the blood ([1]; in blood): about 15 hours

25-hydroxyvitamin D
blood half-life ([1]; in vivo): 2-3 weeks

B1: VDH: Vitamin D hydroxylase derived from Pseudonocardia autotrophica NBRC12743 strain, SEQ ID NO: 1, expressed in E. coli (protein, listed as Pseudonocardia autotrophica)
chain: MALTTTGTEQHDLFSGTFWQNPHPAYAALRAEDPVRKLALPDGPVWLLTRYADVREAFVDPRLSKDWRHTLPEDQRADMPATPTPMMILMDPPDHTRLRKLVGRSFTVRRMNELEPRITEIADGLLAGLPTDGPVDLMREYAFQIPVQVICELLGVPAEDRDDFSAWSSVLVDDSPADDKNAAMGKLHGYLSDLLERKRTEPDDALLSSLLAVSDEDGDRLSQEELVAMAMLLLIAGHETTVNLIGNGVLALLTHPDQRKLLAEDPSLISSAVEEFLRFDSPVSQAPIRFTAEDVTYSGVTIPAGEMVMLGLAAANRDADWMPEPDRLDITRDASGGVFFGHGIHFCLGAQLARLEGRVAIGRLFADRPELALAVGLDELVYRESTLVRGLSRMPVTMGPRSA
change in absorbance (A340) compared to the blank [2]: significant change in absorbance
